Experimental data as given in patent US4956368A, “Metabolites and prodrug formulations of 8-[4-[4-(1,2-benzisothiazol-3-yl)-1-piperazinyl]butyl]-8-azaspiro[4.5]de cane-7,9-dione” (Bristol-Myers Company, priority 1989, dated 1990).
Read-outs that look alike come from different tables or passages of the source.

Tests used:
[1] = target: Dopamine/Spiperone/neuroleptic receptor site; test: Receptor binding test RB1, [3H] Spiperone ligand, D(+)Butaclamol specific binding agent
From the text: (§1) As indication of the psychotropic activity and specificity of a compound, state of the art in vitro central nervous system receptor binding (RB) methodology can be employed. […] Inhibition of radiolabeled ligand binding at such sites is considered a measure of the test compound's ability to affect corresponding central nervous system function in vivo.
(§2) Some of the more common binding tests employed are listed below in Table 1.

Alpha-1 = test: Receptor binding test RB2, [3H] WB-4104 ligand, Phentolamine specific binding agent
From the text: as §1, §2

Serotonin Type 2 (5-HT2) [2] = target: T1, Serotonin Type 2 (5-HT2) (Rattus norvegicus, UniProt P14842); test: Receptor binding test RB3, [3H] Spiperone ligand, D-Lysergide specific binding agent
T1 construct: from tissue; frontal cortex in the cited method
T1 sequence (P14842 whole entry): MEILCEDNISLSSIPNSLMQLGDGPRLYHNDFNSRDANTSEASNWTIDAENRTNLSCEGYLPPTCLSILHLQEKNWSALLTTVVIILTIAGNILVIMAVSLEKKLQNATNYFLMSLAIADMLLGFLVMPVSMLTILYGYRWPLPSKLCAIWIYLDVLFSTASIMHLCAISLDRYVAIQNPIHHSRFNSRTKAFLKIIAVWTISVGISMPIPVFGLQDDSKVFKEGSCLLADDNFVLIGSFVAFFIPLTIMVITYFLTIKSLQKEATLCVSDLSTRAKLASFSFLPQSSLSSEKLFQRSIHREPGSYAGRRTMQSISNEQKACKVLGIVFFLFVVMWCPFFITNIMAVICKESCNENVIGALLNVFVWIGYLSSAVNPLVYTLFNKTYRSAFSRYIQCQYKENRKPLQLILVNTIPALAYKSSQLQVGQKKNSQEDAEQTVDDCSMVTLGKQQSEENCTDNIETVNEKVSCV
From the text: as §1, §2

[3] = target: T2, Serotonin Type 1A (5-HT1A) (Bos taurus, UniProt F6Q2H9); test: Receptor binding test RB4, [3H] 8-OH-DPAT ligand, 8-OH-DPAT specific binding agent
T2 construct: from tissue
T2 sequence (F6Q2H9 1-422): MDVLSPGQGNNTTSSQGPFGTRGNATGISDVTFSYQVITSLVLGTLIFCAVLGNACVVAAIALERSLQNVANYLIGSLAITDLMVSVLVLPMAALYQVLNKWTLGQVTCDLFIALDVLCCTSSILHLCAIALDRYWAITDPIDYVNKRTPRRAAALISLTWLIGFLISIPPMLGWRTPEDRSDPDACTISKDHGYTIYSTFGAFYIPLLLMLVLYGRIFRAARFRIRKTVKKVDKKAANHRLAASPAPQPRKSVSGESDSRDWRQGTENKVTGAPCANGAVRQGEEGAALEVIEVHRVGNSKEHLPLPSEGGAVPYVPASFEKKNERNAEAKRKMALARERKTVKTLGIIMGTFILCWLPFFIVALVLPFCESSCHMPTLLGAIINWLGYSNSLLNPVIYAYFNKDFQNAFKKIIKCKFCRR
From the text: as §1, §2

trained fasted rats = test: Conditioned Avoidance Response (CAR), attenuation of avoidance response to electrical shock; format: in vivo; conditions: Rattus norvegicus
From the text: (§3) The following in vivo test systems (Table 2) are illustrative of the conventional testing used to classify and differentiate a psychotropic agent from a non-specific CNS depressant.

dopaminergic activity = test: Inhibition of Apomorphine-Induced (APO) Stereotypy, blockade of dopaminergic activity; format: in vivo, rats; conditions: Rattus norvegicus, read-out: APO ED50
From the text: The following in vivo test systems (Table 2) are illustrative of the conventional testing used to classify and differentiate a psychotropic agent from a non-specific CNS depressant. |2. Inhibition of Apomorphine-Induced (APO) Stereotypy - | an assessment of blockade of dopaminergic activity in rats | as measured by attenuation of the behavioral syndrome | caused by the dopamine agonist, apomorphine. cf: Janssen, | et al, Arzneimittel.

Serotonin Type 2 (5-HT2) [4] = target: T1, Serotonin Type 2 (5-HT2); conditions: background statement; cited from earlier work
[5] = tested on: Serotonin Type 1A (5-HT1A); conditions: background statement; cited from earlier work
sigma receptor = conditions: background statement; cited from earlier work
[6] = tested on: alpha-adrenergic receptor; conditions: background statement; cited from earlier work
dopamine D2 receptors = conditions: background statement; cited from earlier work
dopamine receptor = conditions: following chronic administration; background statement; cited from earlier work
[7] = tested on: central nervous system receptor; test: in vitro receptor binding (RB) tests, overall (Table 6)
From the text: As indication of the psychotropic activity and specificity of a compound, state of the art in vitro central nervous system receptor binding (RB) methodology can be employed. Certain compounds (commonly referred to as ligands) have been identified which preferentially bind to specific high affinity sites in brain tissue dealing with psychotropic activity. Inhibition of radiolabeled ligand binding at such sites is considered a measure of the test compound's ability to affect corresponding central nervous system function in vivo.
as §2

psychotropic activity = test: in vivo screens predictive of antipsychotic activity, overall (Table 7); parameters: species or system rats; conditions: compared to tiospirone
From the text: as §3
1. Conditioned Avoidance Response (CAR) - measure of a
drug's tranquilizing activity as determined by its'
attenuation of avoidance response to electrical shock in
trained fasted rats. cf: Albert, Pharmacologist, -4, 152 (1962);
2. Inhibition of Apomorphine-Induced (APO) Stereotypy -
an assessment of blockade of dopaminergic activity in rats
as measured by attenuation of the behavioral syndrome
caused by the dopamine agonist, apomorphine. cf: Janssen,
et al, Arzneimittel. Forsch., --17, 841 (1966).

IC50 ([3]; read-out: RB4 IC50) [µM]	SMILES	IC50 [1] [µM]	IC50 (Alpha-1) [µM]	IC50 (Serotonin Type 2 (5-HT2) [2]) [µM]	ED50 (trained fasted rats; po) [mg/kg]	ED50 (dopaminergic activity; po) [mg/kg]	further results
–	c1ccc2c(N3CCNCC3)nsc2c1 [Reference # 14, 4-(1,2-benzisothiazol-3-yl)1H-piperazine]	> 1	0.51	0.11	–	–	IC50 [3]: 0.179 µM
–	O=C1CC2(CCC(O)C2)CC(=O)N1CCC(O)CN1CCN(c2nsc3ccccc23)CC1 (centres unmarked) [Reference # 9]	0.491	0.00715	0.0198	–	–	–
–	O=C1CC2(CCCC2)CC(=O)N1CCCCN1CCN(c2nsc3ccccc23)CC1 [Reference # i, 8-[4-[4-(1,2-benzisothiazol-3-yl)-1-piperazinyl]butyl]-8-azaspiro[4.5]decane-7,9-dione]	–	0.047	–	10.9	13.1	in vitro interactions at serotonin 5-HT2 receptors (Serotonin Type 2 (5-HT2) [4]): potent; in vitro interactions at serotonin 5-HT1A receptors [5]: potent; in vitro interactions at sigma receptor sites (sigma receptor): potent; in vitro interactions at alpha-adrenergic receptor sites [6]: potent; in vitro affinity for dopamine D2 receptors (dopamine D2 receptors): appreciable; dopamine receptor supersensitivity (dopamine receptor): does not cause dopamine receptor supersensitivity
–	O=C1CC2(CCCC2)C(O)C(=O)N1CCCCN1CCN(c2nsc3ccccc23)CC1 (centres unmarked) [Reference # 10, 8-[4-[4-(1,2-Benzisothiazol-3-yl)-1-piperazinyl]butyl]-6-hydroxy-8-azaspiro[-4.5]decane-7,9-dione]	–	–	0.0011	8.4	26	–
–	O=C1CC2(CCCC2)CC(=O)N1CCC(O)CN1CCN(c2nsc3ccccc23)CC1 (centres unmarked) [Reference # 7]	0.111	0.0083	0.0102	> 80	–	–
> 1	O=C1CN(C2=NS(=O)(=O)c3ccccc32)CCN1 [Reference # 17, 4-(1,2-Benzisothiazol-1,1-dioxo-3-yl)-2-oxo-lH-piperazine]	–	13.1	> 100	–	–	–
–	O=C1CCC2(C1)CC(=O)N(CCCCN1CCN(c3nsc4ccccc34)CC1)C(=O)C2 [Reference # 5, 2-Oxo-8-[4-[4-(1,2-benzisothiazol-3-yl)-1-piperazinyl]butyl]-8-azaspiro[4.5]decane-7,9-dione]	0.0683	0.0013	0.00292	–	–	ED50 (trained fasted rats; sc): 60.3 mg/kg; ED50 (dopaminergic activity; sc): > 50 mg/kg
–	O=C1CC2(CCCC2)CC(=O)N1CCCCN1CCN(C2=NS(=O)(=O)c3ccccc32)CC1 [Reference # 1]	> 1	0.274	25	> 100	> 100	–
–	O=C1CC2(CCC(O)C2)CC(=O)N1CCCCN1CCN(c2nsc3ccccc23)CC1 (centres unmarked) [Reference # 2, 2-Hydroxy-8-[4-[4-(1,2-benzisothiazol-3-yl)-1-piperazinyl]butyl]-8-azaspiro[4.5]decane-7,9-dione]	0.0525	0.000876	0.00205	> 100	–	–
1.85	O=C1CC2(CCC(O)C2)CC(=O)N1CCCCN1CCN(c2n[s+]([O-])c3ccccc23)CC1 (centres unmarked) [Reference # 3]	> 100	0.372	1.48	–	–	–
> 100	CC(C)(C)OC(=O)N1CCN(C2=NS(=O)(=O)c3ccccc32)CC1 [Reference # 18, 1,1-Dimethylethyl 4-(1,2-Benzisothiazol-1,1-dioxo-3-yl)-1piperazinecarboxylate]	> 1	> 100	–	–	–	–
1.12	O=C1CC2(CCCC2)CC(=O)N1CCCCN1CCN(c2n[s+]([O-])c3ccccc23)CC1 (centres unmarked) [Reference # ii, 8-[4-[4-(1-oxo-l,2-benzisothiazol-3-yl) -1-piperazinyl]butyl]-8-azaspiro[4.5]decane-7,9-dione, reference compound]	3.49	0.331	0.276	7.6	9.6	in vitro binding affinity compared to tiospirone [7]: attenuation of in vitro binding affinity; potency in in vivo screens predictive of antipsychotic activity (psychotropic activity): did not affect its potency

SMILES	IC50 ([3]; read-out: RB4 IC50) [µM]	IC50 [1] [µM]	IC50 (Alpha-1) [µM]	IC50 (Serotonin Type 2 (5-HT2) [2]) [µM]	ED50 (trained fasted rats; po) [mg/kg]	ED50 (dopaminergic activity; po) [mg/kg]	further results
CCCCCCCCCC(=O)OC1CCC2(CC(=O)N(CCCCN3CCN(c4nsc5ccccc45)CC3)C(=O)C2)C1 (centres unmarked) [Reference # 12, 8-[4-[4-(1,2-Benzisothiazol-3-yl)-1-piperazinyl]butyl]-7,9-dioxo-8-azaspiro[4.5]decan-2-yl Decanoate]	0.0358	0.153	0.00722	0.0102	–	–	–
